Each block holds one molecule with its values, some of them ahead of it.
Tests used:
[1] = Encapsulation efficiency of RNA (QUANT-IT RIBOGREEN RNA assay); assay type: physicochemical
How it was run: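 RiboGreen fluorescence (ex ~480, em ~520 nm) measured after 15 min at 37 °C on samples at ~5 μg/mL in TE, pH 7.5, ± 2% Triton X-100 solution. After blank subtraction, free RNA is given as intact-sample signal divided by disrupted-sample signal.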

Luc expression = Luc expression in CD-1 mice (AUC relative to MC3); assay type: in vivo; conditions: Table 7c
Method: FIG. 15 is a graph summarizing luciferase expression levels at 6 h after administration of nanoparticle compositions containing compounds of the disclosure to CD-1 mice at a dose of 0.5 mpk. Total light flux values were acquired via body luminescent imaging (BLI) 6 h after administration. In this Figure, the numbers 1-7 and 10 refer to the compositions containing Compounds 4-10 and MC3 respectively.
(§1) In contrast, hEPO expression in rats induced by administration of a nanoparticle composition including a compound according to one of formulae (I), (Ia1)-(Ia6), (Ib), (II), (IIa), (III), and (IIIa) was substantially […] than that measured for MC3. […] Table 7c and 7d show additional protein expressions and clearance data from compositions with various compounds disclosed herein as compared to with MC3.

[2] = Particle size and polydispersity index of nanoparticle compositions (Zetasizer Nano ZS); assay type: physicochemical
How it was run: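 Zetasizer Nano ZS; samples in 1×PBS; read-out: particle size plus polydispersity index.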

[3] = Lipid clearance: % dose remaining in mouse liver 6 h and 24 h after administration of nanoparticle compositions; assay type: in vivo, CD-1 mice; conditions: Table 7c
From the text: as §1

[4] = test system: modified luciferase (Luc) expression; assay: Expression upon intramuscular administration of Luc mRNA and H10 mRNA formulations; assay type: in vivo; conditions: 6 hours after intramuscular administration
Method: Sample formulations including both modified luciferase (Luc) mRNA and H10 mRNA were prepared and administered intramuscularly at day 1 and day 21 and the resulting expression and immunogenicity were evaluated simultaneously. Formulations including compounds according to formula (20-I) were prepared and administered at doses of 0.001 and 0.01 mpk (e.g., doses of 0.0005 mpk of a formulation including Luc mRNA and a formulation including H10 mRNA or doses of 0.005 mpk of a formulation including Luc mRNA and a formulation including H10 mRNA). As shown in Table 20-4, the total flux was higher upon administration of the second dose for each composition and at each dose level. Total flux was higher for the higher dose level.

IL-6 = assay: Cytokine production induced by sample formulations: IL-6; assay type: in vivo; conditions: mice, i.v., 0.5 mpk, 6 hours; for IL-6: Table 20-4, formula (20-I), in pg/mL (unit assumed)
How it was run: (§2)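 Cytokine levels were quantified at 6 hours in mice given the nanoparticle compositions i.v. at 0.5 mpk. MC3 standard formulation and PBS served as comparators.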

[5] = test system: luciferase (Luc) mRNA expression; assay: Expression of Luc induced by sample formulations, whole-body bioluminescence after intravenous administration; assay type: in vivo; conditions: mice, i.v., 0.5 mg/kg; for Total Flux 3 hours / Total Flux 6 hours / Total Flux 24 hours: Table 20-2
How it was run: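 Read-out is whole-body bioluminescence at 3, 6 and 24 h after a single intravenous dose of 0.5 mg/kg Luc mRNA in nanoparticle formulations. Groups of n=6 mice; PBS and standard MC3 formulation as references.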

[6] = test system: modified luciferase expression; assay: Expression of Luc in different organs (liver, lung, spleen, femur) 6 hours after intravenous administration; assay type: in vivo; conditions: Table 20-3, mice, i.v., 0.5 mpk
Method: The efficacy of the nanoparticle compositions presented in Tables 1, 1a, 17-1, 19-1, 20-1 and 21-1 was further evaluated by measuring the expression of modified luciferase in the liver, lung, spleen, and femur upon administration of a given composition. Formulations were administered intravenously to mice (n=3) at a dosage of 0.5 mpk and bioluminescence measured after 6 hours. The standard MC3 formulation and a PBS control were also tested.

[7] = pKa of nanoparticle compositions; assay type: physicochemical; conditions: Table 20-1
IP-10 = assay: Cytokine production induced by sample formulations: IP-10; assay type: in vivo; conditions: mice, i.v., 0.5 mpk, 6 hours; for IP-10: Table 20-4, formula (20-I), in pg/mL (unit assumed)
How it was run: as §2

hEPO mRNA expression = assay: Expression of hEPO in CD-1 mice; assay type: in vivo; conditions: Table 7e; hEPO expression, CD-1 mice, 0.5 mpk
From the text: FIG. 12 is a set of graphs illustrating hEPO expression levels in CD-1 mice dosed with compounds of the disclosure, compared to MC3. PBS is used as control. […] In graphs A-C numbers 1-14 refer to compositions containing the following: 1: Compound 73, 2: Compound 80, 3: Compound 70; 4: Compound 81; 5: Compound 69; 6: Compound 82; 7: Compound 83; 8: Compound 62; 9: Compound 84; 10: Compound 85; 11: Compound 86; 12: Compound 87; 13: MC3; 14: PBS.
FIG. 13 is a graph showing hEPO levels (pg/mL) in CD-1 mice up to ˜25 h after administration of a nanoparticle composition containing compounds of the disclosure, compared to a composition containing MC3. Numbers 1-13 refer to compositions containing the following: 1: Compound 73, 2: Compound 80, 3: Compound 70; 4: Compound 81; 5: Compound 69; 6: Compound 82; 7: Compound 83; 8: Compound 62; 9: Compound 84; 10: Compound 85; 11: Compound 86; 12: Compound 87; 13: MC3. […]

[8] = Table 20-1, rows without footnote mark
[9] = Table 20-1, * formulated with DOPE

SMILES: CCCCCCCCCN(CCCC(=O)OCCCCC)CCN(CCCCCCCCC)CC(=O)N1CCN(C(=O)CN(CCCCCCCCC)CCCC(=O)OCCCCC)CC1 [Compound 71, Pentyl 4-(nonyl(2-(4-(N-nonyl-N-(2-(nonyl(4-oxo-4-(pentyloxy)butyl)amino)ethyl)glycyl)piperazin-1-yl)-2-oxoethyl)amino)butanoate]
- EE (%) ([1]; Table 1b): 91.0%
- AUC (p/s*h) (Luc expression): 1.77E+11 p/s*h
- PDI ([2]; Table 1b): 0.18
- Size (nm) ([2]; Table 1b): 99.9 nm
- % Dose Remaining 6 hr ([3]; 6 hr): 12.39%
- % Dose Remaining 24 hr ([3]; 24 hr): 9.25%

SMILES: CCCCCCCCCN(CCCOC(=O)CCCCC)CCC(=O)N1CCN(C(=O)CCN(CCCCCCCCC)CCN(CCCCCCCCC)CCCCCCCCC)CC1 [Compound 86, 3-((3-(4-(3-((2-(Dinonylamino)ethyl)(nonyl)amino)propanoyl)piperazin-1-yl)-3-oxopropyl)(nonyl)amino)propyl Hexanoate]
- EE (%) ([1]; Table 1b): 97.42%
- AUC (p/s*h) CD-1 mice 0.5 mpk (hEPO mRNA expression): 1.75E+7 p/s*h
- PDI ([2]; Table 1b): 0.14
- Size (nm) ([2]; Table 1b): 53.6 nm

SMILES: CCCCCCCCCN(CCCCCCCCC)CCN(CCCCCCCCC)CC(=O)N1CCC(CN(CCCCCCCCC)CCCC(=O)OCCCCC)C1 (centres unmarked) [Compound 82, Pentyl 4-(((1-(N-(2-(dinonylamino)ethyl)-N-nonylglycyl)pyrrolidin-3-yl)methyl)(nonyl)amino)butanoate]
- EE (%) ([1]; Table 1b): 99.23%
- AUC (p/s*h) CD-1 mice 0.5 mpk (hEPO mRNA expression): 1.29E+8 p/s*h
- PDI ([2]; Table 1b): 0.24
- Size (nm) ([2]; Table 1b): 76.1 nm

SMILES: CCCCCCCCCN(CCCCCCCCC)CCN(CCCCCCCCC)CC(=O)N1CCC(CN(CCCCCCCCC)CCCCCCCCC)C1 (centres unmarked) [Compound 70, 2-((2-(Dinonylamino)ethyl)(nonyl)amino)-1-(3-((dinonylamino)methyl)pyrrolidin-1-yl)ethan-1-one]
- EE (%) ([1]; Table 1b): 99.14%
- AUC (p/s*h) CD-1 mice 0.5 mpk (hEPO mRNA expression): 6.34E+7 p/s*h
- PDI ([2]; Table 1b): 0.24
- Size (nm) ([2]; Table 1b): 79.8 nm

SMILES: CCCCCCCCCN(CCCC(=O)OCCCCC)CCC(=O)N1CCN(C(=O)CCN(CCCCCCCCC)CCN(CCCCCCCCC)CCCCCCCCC)CC1 [Compound 62, Pentyl 4-((3-(4-(3-((2-(dinonylamino)ethyl)(nonyl)amino)propanoyl)piperazin-1-yl)-3-oxopropyl)(nonyl)amino)butanoate]
- EE (%) ([1]; Table 1b): 97.73%
- AUC (p/s*h) CD-1 mice 0.5 mpk (hEPO mRNA expression): 3.46E+7 p/s*h
- PDI ([2]; Table 1b): 0.18
- Size (nm) ([2]; Table 1b): 61.7 nm

SMILES: CCCCCCCCCN(CCCOC(=O)CCCCC)CCCC1CCN(C(=O)CCN(CCCCCCCCC)CCN(CCCCCCCCC)CCCCCCCCC)CC1 [Compound 87, 3-((3-(1-(3-((2-(Dinonylamino)ethyl)(nonyl)amino)propanoyl)piperidin-4-yl)propyl)(nonyl)amino)propyl Hexanoate]
- EE (%) ([1]; Table 1b): 98.67%
- AUC (p/s*h) CD-1 mice 0.5 mpk (hEPO mRNA expression): 2.86E+7 p/s*h
- PDI ([2]; Table 1b): 0.21
- Size (nm) ([2]; Table 1b): 80.9 nm

SMILES: CCCCCCCCCN(CCCCCCCCC)CCCC1CCN(C(=O)CCN(CCCCCCCCC)CCN(CCCCCCCCC)CCCCCCCCC)CC1 [Compound 85, 3-((2-(Dinonylamino)ethyl)(nonyl)amino)-1-(4-(3-(dinonylamino)propyl)piperidin-1-yl)propan-1-one]
- EE (%) ([1]; Table 1b): 99.18%
- AUC (p/s*h) CD-1 mice 0.5 mpk (hEPO mRNA expression): 1.27E+8 p/s*h
- PDI ([2]; Table 1b): 0.24
- Size (nm) ([2]; Table 1b): 69.9 nm

SMILES: CCCCCCCCCN(CCCC(=O)OCCCCC)CCC1CCCN(C(=O)CN(CCCCCCCCC)CCN(CCCCCCCCC)CCCCCCCCC)C1 (centres unmarked) [Compound 80, Pentyl 4-((2-(1-(N-(2-(dinonylamino)ethyl)-N-nonylglycyl)piperidin-3-yl)ethyl)(nonyl)amino)butanoate]
- EE (%) ([1]; Table 1b): 98.93%
- AUC (p/s*h) CD-1 mice 0.5 mpk (hEPO mRNA expression): 6.24E+7 p/s*h
- PDI ([2]; Table 1b): 0.2
- Size (nm) ([2]; Table 1b): 65.8 nm

Continued, in another order:

- EE (%) [1, 8]: 91.3%
- IL-6 (IL-6): 169.3
- PDI [2, 8]: 0.160
- Size (nm) [2, 8]: 82.1 nm
- pKa ([7]; rows without footnote mark): 6.86
- IP-10 (IP-10): 270.5
SMILES: CCCCCCCCCCCCN(CCO)CCN(CCCCCC(=O)OCCCCC)CCCCCC(=O)OCCCCC [Compound 20-4, Dipentyl 6,6′-((2-(dodecyl(2-hydroxyethyl)amino)ethyl)azanediyl)dihexanoate]
- Total flux (p/s) 0.001 mpk Dose 1 [4]: 1.04E+06 p/s
- Total flux (p/s) 0.01 mpk Dose 1 [4]: 9.46E+06 p/s
- Total Flux 3 hours ([5]; 3 hours): 3.01E+06
- Total Flux 6 hours [5]: 1.75E+06
- Total Flux 24 hours [5]: 6.82E+08
- Total Flux Femur ([6]; femur): 2.09E+04
- Total Flux Liver [6]: 2.93E+05
- Total Flux Lung [6]: 1.11E+04
- Total Flux Spleen [6]: 4.51E+04

- EE (%) [1, 9]: 90.7%
- IL-6 (IL-6): 62.4
- PDI [2, 9]: 0.078
- Size (nm) [2, 9]: 87.8 nm
- pKa ([7]; * formulated with DOPE): 4.48
- IP-10 (IP-10): 2065.8
SMILES: CCCCCCCCCCCCN(CCCCCCCCCCCC)CCN(CCCCCCCCCCCC)CC(=O)O [Compound 20-1, N-(2-(Didodecylamino)ethyl)-N-dodecylglycine]
- Total flux (p/s) 0.001 mpk Dose 1 [4]: 3.50E+05 p/s
- Total flux (p/s) 0.001 mpk Dose 2 [4]: 1.99E+06 p/s
- Total flux (p/s) 0.01 mpk Dose 1 [4]: 3.16E+06 p/s
- Total flux (p/s) 0.01 mpk Dose 2 [4]: 1.04E+07 p/s
- Total Flux 3 hours ([5]; 3 hours): 1.44E+06
- Total Flux 6 hours [5]: 8.30E+05
- Total Flux 24 hours [5]: 4.53E+05
- total flux after 24 hours, rank within the named table (in words) [5]: lowest
- Total Flux Liver [6]: 3.19E+05
- Total Flux Lung [6]: 3.79E+04
- Total Flux Spleen [6]: 1.70E+05

- EE (%) [1, 8]: 94.7%
- IL-6 (IL-6): 0
- IL-6 induction, rank within the named table (in words) (IL-6): lowest
- PDI [2, 8]: 0.220
- Size (nm) [2, 8]: 82.5 nm
- pKa ([7]; rows without footnote mark): 6.73
- IP-10 (IP-10): 25.3
- IP-10 induction, rank or comparison with IL-6 (in words) (IP-10): lowest
SMILES: CCCCCCCCCN(CCCCCCCCC)CCN(CCO)CCCCCC(=O)OCCCCC [Compound 20-6, Pentyl 6-((2-(dinonylamino)ethyl)(2-hydroxyethyl)amino)hexanoate]
- Total flux (p/s) 0.001 mpk Dose 1 [4]: 8.57E+05 p/s
- Total flux (p/s) 0.001 mpk Dose 2 [4]: 9.79E+05 p/s
- Total flux (p/s) 0.01 mpk Dose 1 [4]: 3.41E+06 p/s
- Total flux (p/s) 0.01 mpk Dose 2 [4]: 6.04E+06 p/s
- Total Flux 3 hours ([5]; 3 hours): 3.39E+10
- Total Flux 6 hours [5]: 5.44E+06
- Total Flux 24 hours [5]: 5.48E+05
- total flux after 3 hours, rank within the named table (in words) ([5]; 3 hours): highest after 3 hours
- total flux after 24 hours, rank within the named table (in words) [5]: lowest
- Total Flux Liver [6]: 7.75E+05
- Total Flux Lung [6]: 2.32E+04
- Total Flux Spleen [6]: 2.35E+05
